Key:
[1] = target: Transporter, Norepinephrine (NET) (Homo sapiens, UniProt P23975); test: radioligand binding assay; settings: read-out: % inhibition at 10 μM
Histamine H2 = Histamine H2 (Homo sapiens, UniProt P25021); test: radioligand binding assay; settings: read-out: % inhibition or stimulation at 10 μM
Androgen (Testosterone) = Androgen (Testosterone) (Homo sapiens, UniProt P10275); test: radioligand binding assay; settings: read-out: % inhibition at 10 μM
[2] = target: Transporter, Dopamine (DAT) (Homo sapiens, UniProt Q01959); test: radioligand binding assay; settings: read-out: % inhibition at 10 μM
Serotonin 5-HT2B = Serotonin 5-HT2B (Homo sapiens, UniProt P41595); test: radioligand binding assay; settings: read-out: % inhibition at 10 μM
[3] = target: Platelet Activating Factor (PAF) (Homo sapiens, UniProt P25105); test: biochemical; settings: read-out: % inhibition or stimulation (human)
[4] = target: Epidermal Growth Factor (EGF) (Homo sapiens, UniProt P00533); test: biochemical; settings: read-out: % inhibition or stimulation (human)
Chain of Epidermal Growth Factor (EGF) (P00533 whole entry): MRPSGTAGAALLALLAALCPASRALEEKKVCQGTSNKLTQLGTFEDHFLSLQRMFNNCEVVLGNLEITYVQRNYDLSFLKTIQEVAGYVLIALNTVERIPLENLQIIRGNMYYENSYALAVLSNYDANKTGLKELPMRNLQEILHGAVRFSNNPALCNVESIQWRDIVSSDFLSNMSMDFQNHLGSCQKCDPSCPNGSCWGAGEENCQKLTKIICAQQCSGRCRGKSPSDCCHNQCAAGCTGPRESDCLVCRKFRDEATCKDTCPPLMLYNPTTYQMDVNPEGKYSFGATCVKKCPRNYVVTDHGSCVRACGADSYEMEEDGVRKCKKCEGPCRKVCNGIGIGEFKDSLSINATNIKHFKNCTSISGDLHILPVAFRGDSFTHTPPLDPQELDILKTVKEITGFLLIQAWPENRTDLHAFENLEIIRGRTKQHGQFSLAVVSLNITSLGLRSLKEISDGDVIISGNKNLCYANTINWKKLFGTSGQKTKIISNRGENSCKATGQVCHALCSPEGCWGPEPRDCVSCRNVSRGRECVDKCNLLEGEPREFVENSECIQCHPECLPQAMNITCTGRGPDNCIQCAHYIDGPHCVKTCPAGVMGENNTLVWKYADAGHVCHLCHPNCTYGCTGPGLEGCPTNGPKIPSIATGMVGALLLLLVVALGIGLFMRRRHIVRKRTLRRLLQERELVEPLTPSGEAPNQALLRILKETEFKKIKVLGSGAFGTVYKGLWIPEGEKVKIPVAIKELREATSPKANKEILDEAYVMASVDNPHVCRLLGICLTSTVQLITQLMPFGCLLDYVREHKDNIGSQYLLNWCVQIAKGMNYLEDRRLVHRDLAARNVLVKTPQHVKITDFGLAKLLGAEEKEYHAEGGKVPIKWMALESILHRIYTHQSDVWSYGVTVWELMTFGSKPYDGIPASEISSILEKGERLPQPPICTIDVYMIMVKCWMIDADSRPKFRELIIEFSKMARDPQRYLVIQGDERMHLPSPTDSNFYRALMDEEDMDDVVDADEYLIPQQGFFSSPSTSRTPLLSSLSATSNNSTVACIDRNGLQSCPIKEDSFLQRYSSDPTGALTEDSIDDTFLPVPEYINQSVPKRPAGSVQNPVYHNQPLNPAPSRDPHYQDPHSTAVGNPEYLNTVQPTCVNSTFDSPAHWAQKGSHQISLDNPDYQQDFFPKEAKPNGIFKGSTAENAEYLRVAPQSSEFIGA

Glucocorticoid = Glucocorticoid (Homo sapiens, UniProt P04150); test: biochemical; settings: read-out: % inhibition or stimulation (human)
Adenosine A1 = Adenosine A1 (Homo sapiens, UniProt P30542); test: biochemical; settings: read-out: % inhibition or stimulation (human)
Adenosine A2A = Adenosine A2A (Homo sapiens, UniProt P29274); test: biochemical; settings: read-out: % inhibition or stimulation (human)
Chain of Adenosine A2A (P29274 whole entry): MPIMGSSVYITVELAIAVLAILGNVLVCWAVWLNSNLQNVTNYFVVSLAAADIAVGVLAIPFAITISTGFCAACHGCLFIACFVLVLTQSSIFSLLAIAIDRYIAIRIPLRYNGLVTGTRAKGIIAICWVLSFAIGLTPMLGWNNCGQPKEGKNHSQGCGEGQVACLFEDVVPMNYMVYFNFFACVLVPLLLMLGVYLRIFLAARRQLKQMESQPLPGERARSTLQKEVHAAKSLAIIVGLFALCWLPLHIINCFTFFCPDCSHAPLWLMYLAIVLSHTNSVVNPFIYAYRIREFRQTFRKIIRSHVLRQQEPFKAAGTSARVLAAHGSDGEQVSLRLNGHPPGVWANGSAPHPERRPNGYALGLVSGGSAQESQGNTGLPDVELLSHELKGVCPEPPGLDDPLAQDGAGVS

Adenosine A3 = Adenosine A3 (Homo sapiens, UniProt P0DMS8); test: biochemical; settings: read-out: % inhibition or stimulation (human)
Adrenergic α1A = Adrenergic α1A (Homo sapiens, UniProt P35348); test: biochemical; settings: read-out: % inhibition or stimulation (human)
Adrenergic α1B = Adrenergic α1B (Homo sapiens, UniProt P35368); test: biochemical; settings: read-out: % inhibition or stimulation (human)
Chain of Adrenergic α1B (P35368 whole entry): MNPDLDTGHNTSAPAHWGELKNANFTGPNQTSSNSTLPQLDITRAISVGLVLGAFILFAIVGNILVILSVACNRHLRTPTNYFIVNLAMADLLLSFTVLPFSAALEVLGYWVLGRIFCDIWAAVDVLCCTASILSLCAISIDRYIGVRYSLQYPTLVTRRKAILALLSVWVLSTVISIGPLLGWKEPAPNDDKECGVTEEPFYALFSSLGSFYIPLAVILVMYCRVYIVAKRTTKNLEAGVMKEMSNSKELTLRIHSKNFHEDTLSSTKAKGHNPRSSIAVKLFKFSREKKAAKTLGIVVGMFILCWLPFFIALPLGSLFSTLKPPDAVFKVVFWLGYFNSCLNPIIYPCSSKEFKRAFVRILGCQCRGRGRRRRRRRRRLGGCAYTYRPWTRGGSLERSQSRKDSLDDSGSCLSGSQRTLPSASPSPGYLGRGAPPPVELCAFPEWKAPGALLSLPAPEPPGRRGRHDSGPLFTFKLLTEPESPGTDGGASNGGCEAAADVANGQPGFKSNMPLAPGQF

Adrenergic α1D = Adrenergic α1D (Homo sapiens, UniProt P25100); test: biochemical; settings: read-out: % inhibition or stimulation (human)
Adrenergic α2A = Adrenergic α2A (Homo sapiens, UniProt P08913); test: biochemical; settings: read-out: % inhibition or stimulation (human)
Adrenergic β1 = Adrenergic β1 (Homo sapiens, UniProt P08588); test: biochemical; settings: read-out: % inhibition or stimulation (human)
Adrenergic β2 = Adrenergic β2 (Homo sapiens, UniProt P07550); test: biochemical; settings: read-out: % inhibition or stimulation (human)
Chain of Adrenergic β2 (P07550 whole entry): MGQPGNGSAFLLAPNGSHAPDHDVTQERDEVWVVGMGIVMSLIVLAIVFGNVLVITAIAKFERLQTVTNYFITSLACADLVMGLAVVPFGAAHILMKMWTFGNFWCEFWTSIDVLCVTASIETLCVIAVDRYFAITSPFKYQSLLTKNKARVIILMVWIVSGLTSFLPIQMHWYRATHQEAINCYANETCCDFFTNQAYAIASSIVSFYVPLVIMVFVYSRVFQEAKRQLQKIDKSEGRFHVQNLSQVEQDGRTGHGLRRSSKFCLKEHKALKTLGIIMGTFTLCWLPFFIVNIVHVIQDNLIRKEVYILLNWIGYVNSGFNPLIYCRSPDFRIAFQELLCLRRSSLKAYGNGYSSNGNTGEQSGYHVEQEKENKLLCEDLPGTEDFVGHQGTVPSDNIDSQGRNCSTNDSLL

Bradykinin B1 = Bradykinin B1 (Homo sapiens, UniProt P46663); test: biochemical; settings: read-out: % inhibition or stimulation (human)
Bradykinin B2 = Bradykinin B2 (Homo sapiens, UniProt P30411); test: biochemical; settings: read-out: % inhibition or stimulation (human)
Cannabinoid CB1 = Cannabinoid CB1 (Homo sapiens, UniProt P21554); test: biochemical; settings: read-out: % inhibition or stimulation (human)
Dopamine D1 = Dopamine D1 (Homo sapiens, UniProt P21728); test: biochemical; settings: read-out: % inhibition or stimulation (human)
Chain of Dopamine D1 (P21728 whole entry): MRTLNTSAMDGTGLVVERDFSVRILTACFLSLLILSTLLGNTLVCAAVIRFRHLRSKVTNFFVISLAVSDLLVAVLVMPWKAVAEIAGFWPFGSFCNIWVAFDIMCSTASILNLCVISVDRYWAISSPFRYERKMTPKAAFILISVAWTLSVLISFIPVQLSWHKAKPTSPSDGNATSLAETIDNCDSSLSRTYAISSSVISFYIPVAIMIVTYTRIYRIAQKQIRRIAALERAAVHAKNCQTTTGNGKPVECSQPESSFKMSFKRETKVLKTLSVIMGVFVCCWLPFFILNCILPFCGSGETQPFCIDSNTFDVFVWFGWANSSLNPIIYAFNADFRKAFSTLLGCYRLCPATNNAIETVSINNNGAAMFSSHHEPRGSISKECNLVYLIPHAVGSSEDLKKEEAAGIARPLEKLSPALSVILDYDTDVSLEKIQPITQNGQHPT

Dopamine D2S = Dopamine D2S (Homo sapiens, UniProt P14416); test: biochemical; settings: read-out: % inhibition or stimulation (human)
Dopamine D3 = Dopamine D3 (Homo sapiens, UniProt P35462); test: biochemical; settings: read-out: % inhibition or stimulation (human)
Dopamine D4.4 = Dopamine D4.4 (Homo sapiens, UniProt P21917); test: biochemical; settings: read-out: % inhibition or stimulation (human)
Chain of Dopamine D4.4 (P21917 whole entry): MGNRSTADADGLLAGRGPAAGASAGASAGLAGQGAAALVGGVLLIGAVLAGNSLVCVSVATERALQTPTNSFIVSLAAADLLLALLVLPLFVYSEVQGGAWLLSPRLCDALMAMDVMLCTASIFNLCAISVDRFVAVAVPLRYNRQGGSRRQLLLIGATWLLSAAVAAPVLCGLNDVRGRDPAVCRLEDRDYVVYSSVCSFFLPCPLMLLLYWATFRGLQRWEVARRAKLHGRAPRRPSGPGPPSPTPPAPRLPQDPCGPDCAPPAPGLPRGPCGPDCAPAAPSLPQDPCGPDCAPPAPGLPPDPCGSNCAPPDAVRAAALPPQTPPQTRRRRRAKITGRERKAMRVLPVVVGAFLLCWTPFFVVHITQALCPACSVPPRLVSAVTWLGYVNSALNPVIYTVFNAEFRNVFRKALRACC

Endothelin ETA = Endothelin ETA (Homo sapiens, UniProt P25101); test: biochemical; settings: read-out: % inhibition or stimulation (human)
Endothelin ETB = Endothelin ETB (Homo sapiens, UniProt P24530); test: biochemical; settings: read-out: % inhibition or stimulation (human)
Estrogen ERα = Estrogen ERα (Homo sapiens, UniProt P03372); test: biochemical; settings: read-out: % inhibition or stimulation (human)
Histamine H1 = Histamine H1 (Homo sapiens, UniProt P35367); test: biochemical; settings: read-out: % inhibition or stimulation (human)
Histamine H3 = Histamine H3 (Homo sapiens, UniProt Q9Y5N1); test: biochemical; settings: read-out: % inhibition or stimulation (human)
Interleukin IL-1 R1 = Interleukin IL-1 R1 (Homo sapiens, UniProt P14778); test: biochemical; settings: read-out: % inhibition or stimulation (human)
[5] = target: Leukotriene, Cysteinyl CysLT1 (Homo sapiens, UniProt Q9Y271); test: biochemical; settings: read-out: % inhibition or stimulation (human)
Melatonin MT1 = Melatonin MT1 (Homo sapiens, UniProt P48039); test: biochemical; settings: read-out: % inhibition or stimulation (human)
Muscarinic M1 = Muscarinic M1 (Homo sapiens, UniProt P11229); test: biochemical; settings: read-out: % inhibition or stimulation (human)
Muscarinic M2 = Muscarinic M2 (Homo sapiens, UniProt P08172); test: biochemical; settings: read-out: % inhibition or stimulation (human)
Muscarinic M3 = Muscarinic M3 (Homo sapiens, UniProt P20309); test: biochemical; settings: read-out: % inhibition or stimulation (human)
Neuropeptide Y Y1 = Neuropeptide Y Y1 (Homo sapiens, UniProt P25929); test: biochemical; settings: read-out: % inhibition or stimulation (human)
Neuropeptide Y Y2 = Neuropeptide Y Y2 (Homo sapiens, UniProt P49146); test: biochemical; settings: read-out: % inhibition or stimulation (human)
[6] = target: Nicotinic Acetylcholine α1, Bungarotoxin (Homo sapiens, UniProt P02708); test: biochemical; settings: read-out: % inhibition or stimulation (human)
[7] = target: Nicotinic Acetylcholine α3β4 (Homo sapiens, UniProt P30926+P32297); test: biochemical; settings: read-out: % inhibition or stimulation (human)
Opiate µ (OP3, MOP) = Opiate µ (OP3, MOP) (Homo sapiens, UniProt P35372); test: biochemical; settings: read-out: % inhibition or stimulation (human)
Opiate δ1 (OP1, DOP) = Opiate δ1 (OP1, DOP) (Homo sapiens, UniProt P41143); test: biochemical; settings: read-out: % inhibition or stimulation (human)
Chain of Opiate δ1 (OP1, DOP) (P41143 whole entry): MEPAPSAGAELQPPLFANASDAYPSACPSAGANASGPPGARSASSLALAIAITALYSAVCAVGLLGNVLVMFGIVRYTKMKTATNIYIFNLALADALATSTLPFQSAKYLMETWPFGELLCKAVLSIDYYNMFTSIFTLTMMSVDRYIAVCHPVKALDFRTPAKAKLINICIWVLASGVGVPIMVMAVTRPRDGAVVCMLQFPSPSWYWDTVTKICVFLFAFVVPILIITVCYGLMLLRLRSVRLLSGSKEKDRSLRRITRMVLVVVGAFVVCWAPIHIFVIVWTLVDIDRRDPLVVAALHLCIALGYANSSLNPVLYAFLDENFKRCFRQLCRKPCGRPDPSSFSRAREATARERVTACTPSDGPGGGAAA

Opiate κ (OP2, KOP) = Opiate κ (OP2, KOP) (Homo sapiens, UniProt P41145); test: biochemical; settings: read-out: % inhibition or stimulation (human)
Potassium Channel hERG = Potassium Channel hERG (Homo sapiens, UniProt Q12809); test: in vitro
Chain of Potassium Channel hERG (Q12809 whole entry): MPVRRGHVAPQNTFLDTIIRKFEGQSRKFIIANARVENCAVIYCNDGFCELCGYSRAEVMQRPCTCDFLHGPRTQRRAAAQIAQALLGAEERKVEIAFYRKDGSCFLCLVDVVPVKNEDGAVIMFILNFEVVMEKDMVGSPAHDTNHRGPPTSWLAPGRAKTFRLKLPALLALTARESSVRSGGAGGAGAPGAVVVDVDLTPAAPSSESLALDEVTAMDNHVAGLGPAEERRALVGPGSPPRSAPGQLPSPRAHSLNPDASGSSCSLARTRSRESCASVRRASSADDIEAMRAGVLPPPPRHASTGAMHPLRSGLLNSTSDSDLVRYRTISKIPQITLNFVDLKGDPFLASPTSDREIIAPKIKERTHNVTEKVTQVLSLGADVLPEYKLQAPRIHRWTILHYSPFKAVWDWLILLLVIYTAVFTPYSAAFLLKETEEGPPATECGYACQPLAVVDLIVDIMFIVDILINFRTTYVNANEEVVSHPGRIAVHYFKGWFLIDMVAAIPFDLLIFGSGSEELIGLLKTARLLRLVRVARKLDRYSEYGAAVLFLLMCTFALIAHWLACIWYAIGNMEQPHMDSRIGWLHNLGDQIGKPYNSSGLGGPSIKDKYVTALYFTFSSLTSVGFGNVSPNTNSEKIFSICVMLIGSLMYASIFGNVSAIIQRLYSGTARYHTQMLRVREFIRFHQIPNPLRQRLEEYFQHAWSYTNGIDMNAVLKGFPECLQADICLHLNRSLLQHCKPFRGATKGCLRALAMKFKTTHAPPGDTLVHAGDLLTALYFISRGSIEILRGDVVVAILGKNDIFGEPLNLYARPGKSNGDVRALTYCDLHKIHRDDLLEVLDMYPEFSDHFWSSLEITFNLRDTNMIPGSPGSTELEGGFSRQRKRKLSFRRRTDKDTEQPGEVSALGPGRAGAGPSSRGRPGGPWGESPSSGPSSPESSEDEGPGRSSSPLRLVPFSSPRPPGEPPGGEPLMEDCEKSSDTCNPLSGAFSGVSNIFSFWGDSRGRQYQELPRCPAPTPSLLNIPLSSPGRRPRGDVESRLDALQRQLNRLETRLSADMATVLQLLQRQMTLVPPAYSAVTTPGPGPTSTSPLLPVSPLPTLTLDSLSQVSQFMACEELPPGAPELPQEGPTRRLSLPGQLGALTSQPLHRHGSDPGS

Prostanoid EP4 = Prostanoid EP4 (Homo sapiens, UniProt P35408); test: biochemical; settings: read-out: % inhibition or stimulation (human)
[8] = target: Serotonin (5-Hydroxytryptamine) 5-HT1A (Homo sapiens, UniProt P08908); test: biochemical; settings: read-out: % inhibition or stimulation (human)
[9] = target: Serotonin (5-Hydroxytryptamine) 5-HT3 (Homo sapiens, UniProt P46098); test: biochemical; settings: read-out: % inhibition or stimulation (human)
Sigma σ1 = Sigma σ1 (Homo sapiens, UniProt Q99720); test: biochemical; settings: read-out: % inhibition or stimulation (human)
Tachykinin NK1 = Tachykinin NK1 (Homo sapiens, UniProt P25103); test: biochemical; settings: read-out: % inhibition or stimulation (human)
[10] = target: Transporter, Serotonin (5- Hydroxytryptamine) (SERT) (Homo sapiens, UniProt P31645); test: biochemical; settings: read-out: % inhibition or stimulation (human)

CC(C)(C)c1ccc(C2=C(/C=N/O)CCC2)cc1 [8n, (E)-2-(4-(tert-butyl)phenyl)cyclopent-1-ene-1-carbaldehyde oxime]
inhibition at 10 µM [1]: 75% | inhibition at 10 µM (Histamine H2): -54% | inhibition at 10 µM (Androgen (Testosterone)): 79% | inhibition at 10 µM [2]: 86% | inhibition at 10 µM (Serotonin 5-HT2B): 63% | inhibition at 10 µM [3]: -14% | inhibition at 10 µM [4]: 2% | inhibition at 10 µM (Glucocorticoid): -4% | inhibition at 10 µM (Adenosine A1): 33% | inhibition at 10 µM (Adenosine A2A): 16% | inhibition at 10 µM (Adenosine A3): 45% | inhibition at 10 µM (Adrenergic α1A): 5% | inhibition at 10 µM (Adrenergic α1B): -15% | inhibition at 10 µM (Adrenergic α1D): 7% | inhibition at 10 µM (Adrenergic α2A): 14% | inhibition at 10 µM (Adrenergic β1): 4% | inhibition at 10 µM (Adrenergic β2): 12% | inhibition at 10 µM (Bradykinin B1): -3% | inhibition at 10 µM (Bradykinin B2): -27% | inhibition at 10 µM (Cannabinoid CB1): 20% | inhibition at 10 µM (Dopamine D1): 30% | inhibition at 10 µM (Dopamine D2S): 12% | inhibition at 10 µM (Dopamine D3): 23% | inhibition at 10 µM (Dopamine D4.4): -15% | inhibition at 10 µM (Endothelin ETA): 11% | inhibition at 10 µM (Endothelin ETB): 0% | inhibition at 10 µM (Estrogen ERα): 6% | inhibition at 10 µM (Histamine H1): 42% | inhibition at 10 µM (Histamine H3): 0% | inhibition at 10 µM (Interleukin IL-1 R1): 19% | inhibition at 10 µM [5]: 25% | inhibition at 10 µM (Melatonin MT1): -3% | inhibition at 10 µM (Muscarinic M1): 0% | inhibition at 10 µM (Muscarinic M2): 7% | inhibition at 10 µM (Muscarinic M3): 9% | inhibition at 10 µM (Neuropeptide Y Y1): -6% | inhibition at 10 µM (Neuropeptide Y Y2): -11% | inhibition at 10 µM [6]: 0% | inhibition at 10 µM [7]: -1% | inhibition at 10 µM (Opiate µ (OP3, MOP)): 9% | inhibition at 10 µM (Opiate δ1 (OP1, DOP)): 7% | inhibition at 10 µM (Opiate κ (OP2, KOP)): 0% | inhibition at 10 µM (Potassium Channel hERG): 25% | inhibition at 10 µM (Prostanoid EP4): 34% | inhibition at 10 µM [8]: -42% | inhibition at 10 µM [9]: -5% | inhibition at 10 µM (Sigma σ1): 33% | inhibition at 10 µM (Tachykinin NK1): -2% | inhibition at 10 µM [10]: 13%

— paper doi:10.1101/2020.08.04.236877v1 (biorxiv, 2020)
